The structures appear in SMILES notation.

The target in the test is T1, Ketohexokinase (Human, UniProt P50053).
T1 sequence (P50053 whole entry): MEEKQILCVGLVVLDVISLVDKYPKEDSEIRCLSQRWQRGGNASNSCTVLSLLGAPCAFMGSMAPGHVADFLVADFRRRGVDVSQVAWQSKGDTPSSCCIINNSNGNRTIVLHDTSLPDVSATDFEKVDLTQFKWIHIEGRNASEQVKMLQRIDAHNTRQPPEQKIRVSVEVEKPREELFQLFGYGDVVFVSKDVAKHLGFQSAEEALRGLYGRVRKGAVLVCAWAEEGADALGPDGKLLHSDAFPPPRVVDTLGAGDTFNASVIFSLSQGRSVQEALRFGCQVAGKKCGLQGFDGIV
The test is described as follows: Ketohexokinase Assay (KHK Assay). The protocol: a) Kinase Reaction1. preparation of Dilution Buffer containing 50 mM hydroxyethylpiperazine […] (Hepes), 140 mM KCl, 3.5 mM MgCl2, and 0.01% bovine serum albumin (BSA), pH 7.4.2. A working solution of ketohexokinase at 2.5 times concentration was prepared with Dilution Buffer, with 50 nM ketohexokinase and 12.5 mM fructose.3. A working solution of adenosine triphosphate (ATP) at 2.5 times concentration was prepared with Dilution Buffer, with a concentration of 250 μM.4. Each compound was diluted starting at a concentration of 500 μM, 3-fold diluted for 9 concentration points. The final concentration of the compound in the reaction system started from 10 μM and the final concentration of dimethyl sulfoxide (DMSO) was 2%.5. A 96-well plate was prepared as a reaction plate, and was incubated at room temperature for 5 min after adding 6 μL ketohexokinase working solution at 2.5 times concentration to each well and further adding 3 μL compound working solution to each well.6. The first well of each row was a positive control for a compound, i.e. the same volume of the buffer was added to replace the compound […]. The last well was a negative control for the compound, i.e. the same volume of Dilution Buffer was added instead of the compound.7. 6 μL ATP working solution was added to each well in a 96-well reaction plate to initiate the kinase reaction. The kinase reaction was incubated in a constant temperature heater at 28° C. for 1 h.b) ADP-Glo assay1. A384 plate was prepared as a detection plate, and firstly 5 μL ADP-Glo reagent was added.2. 5 μL kinase reaction mixture from the reaction plate was added to each well and incubated in a constant temperature heater at 28° C. for 30 min.3. 10 μL kinase detection reagent was added to each well and incubated in a constant temperature heater at 28° C. for 30 min.4. The detection plate was placed in an EnVision multilabel reader to read the chemiluminescent signal.
What is called IC50 is the concentration needed to halve the response being measured. Low readings indicate greater potency, high ones weaker potency. Consider `C[C@H]1CCN1c1nc(N2CC3(C[C@@H]3C(=O)O)C2)c2c(n1)C(F)(F)CC2` [US12534477, Compound WX042], for which the midpoint of inhibition, the IC50, lay at 21 nM. Molecule `C[C@H]1CCN1c1nc(Nc2ccc(C(=O)O)c(C(F)(F)F)c2)c2ccsc2n1` [US12534477, Compound WX013] displayed an IC50 of 17 nM. For `C[C@H]1CCN1c1nc(N2CC3(CC3C(=O)O)C2)c2c(n1)C(F)(F)CC2` (some centres undefined) [US12534477, Compound WX035], half-maximal inhibition (IC50) required 36 nM. As for `C[C@H]1CCN1c1nc(N2CC3(C[C@H]3C(=O)O)C2)c2c(n1)C(F)(F)CC2` [US12534477, Compound WX043], the figure is 28 nM.

Values taken from BindingDB's records for patent US12534477 (Hangzhou Zhongmeihuadong Pharmaceutical, 2026).
